Results taken from patent US20220033397A1, “PHARMACEUTICAL COMPOUNDS AND THEIR USE AS INHIBITORS OF UBIQUITIN SPECIFIC PROTEASE 19 (USP19)” (ALMAC DISCOVERY LIMITED, priority 2018, published 2022).

Target: T1, Full-length USP19 (Homo sapiens, UniProt O94966)
T1 construct: Full-length USP19 was purchased from Boston Biochem (E-576); purchased Boston Biochem E-576
T1 sequence (O94966 1-1318): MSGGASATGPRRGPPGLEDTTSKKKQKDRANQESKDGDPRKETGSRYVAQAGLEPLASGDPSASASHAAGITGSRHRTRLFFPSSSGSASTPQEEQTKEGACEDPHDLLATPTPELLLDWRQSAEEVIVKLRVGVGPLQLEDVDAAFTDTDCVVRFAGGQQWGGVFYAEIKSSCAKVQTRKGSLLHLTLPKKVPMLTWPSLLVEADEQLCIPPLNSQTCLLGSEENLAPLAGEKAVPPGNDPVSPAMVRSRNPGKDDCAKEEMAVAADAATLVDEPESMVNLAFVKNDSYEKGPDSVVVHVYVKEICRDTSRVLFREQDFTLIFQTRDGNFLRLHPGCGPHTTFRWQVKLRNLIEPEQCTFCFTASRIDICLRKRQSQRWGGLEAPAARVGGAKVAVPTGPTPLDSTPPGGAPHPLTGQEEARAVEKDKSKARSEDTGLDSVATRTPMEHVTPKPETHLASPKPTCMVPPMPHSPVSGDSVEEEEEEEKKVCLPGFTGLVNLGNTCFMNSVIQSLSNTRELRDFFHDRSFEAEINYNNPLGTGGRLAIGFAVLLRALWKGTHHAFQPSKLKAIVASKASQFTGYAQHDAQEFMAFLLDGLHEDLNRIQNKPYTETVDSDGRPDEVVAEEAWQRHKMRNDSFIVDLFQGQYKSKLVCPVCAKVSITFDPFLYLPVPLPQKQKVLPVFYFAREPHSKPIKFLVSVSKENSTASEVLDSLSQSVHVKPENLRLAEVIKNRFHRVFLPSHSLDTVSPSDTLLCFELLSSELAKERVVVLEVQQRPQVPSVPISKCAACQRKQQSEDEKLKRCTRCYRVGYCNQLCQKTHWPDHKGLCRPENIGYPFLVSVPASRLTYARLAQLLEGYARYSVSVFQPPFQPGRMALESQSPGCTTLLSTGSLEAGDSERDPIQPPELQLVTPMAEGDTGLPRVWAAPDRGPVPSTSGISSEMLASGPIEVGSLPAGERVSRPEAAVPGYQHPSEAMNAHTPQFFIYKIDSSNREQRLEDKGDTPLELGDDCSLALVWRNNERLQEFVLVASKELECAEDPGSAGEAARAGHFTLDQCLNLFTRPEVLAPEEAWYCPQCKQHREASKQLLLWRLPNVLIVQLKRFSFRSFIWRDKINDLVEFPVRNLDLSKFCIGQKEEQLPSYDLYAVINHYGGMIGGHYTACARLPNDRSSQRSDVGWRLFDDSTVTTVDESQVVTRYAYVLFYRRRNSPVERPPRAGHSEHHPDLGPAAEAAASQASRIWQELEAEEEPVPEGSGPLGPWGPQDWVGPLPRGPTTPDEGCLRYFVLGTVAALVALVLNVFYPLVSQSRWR
Assay: USP19 fluorescence polarisation (FP) homogeneous assay with Ubiquitin-Lys-TAMRA substrate
Format: biochemical
Settings: 2.5 nM USP19, 30 min pre-incubation, average of at least two duplicate experiments
Summary of the method: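 Full-length USP19 preincubated 30 min at RT with inhibitor (200 μM to 2 μM series, 8–18 points) before adding 500 nM Ubiquitin-Lys-TAMRA substrate.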

SMILES	IC50
O=C(NCc1ccccc1)N1CCC(O)(Cn2ccc(-c3ccccc3)cc2=O)C2(CCCC2)C1 (stereo not shown) [Example 192, N-Benzyl-10-hydroxy-10-((2-oxo-4-phenylpyridin-1(2H)-yl)methyl)-7-azaspiro[4.5]decane-7-carboxamide]	< 0.5 µM
O=C(NCc1ccccc1)N1CCC(O)(Cn2cnc(-c3ccccc3F)cc2=O)C2(CC2)C1 (stereo not shown) [Example 194, N-Benzyl-8-((4-(2-fluorophenyl)-6-oxopyrimidin-1(6H)-yl)methyl)-8-hydroxy-5-azaspiro[2.5]octane-5-carboxamide]	50 to 250 µM
O=C(NCC(F)(F)F)N1CCC(O)(Cn2cnc(-c3ccccc3)cc2=O)C2(CCCC2)C1 (stereo not shown) [Example 196, 10-Hydroxy-10-((6-oxo-4-phenylpyrimidin-1(6H)-yl)methyl)-N-(2,2,2-trifluoroethyl)-7-azaspiro[4.5]decane-7-carboxamide]	5 to 50 µM
O=C(NCc1ccccn1)N1CCC(O)(Cn2cnc(-c3ccccc3)cc2=O)C2(CCCC2)C1 (stereo not shown) [Example 197, 10-Hydroxy-10-((6-oxo-4-phenylpyrimidin-1(6H)-yl)methyl)-N-(pyridin-2-ylmethyl)-7-azaspiro[4.5]decane-7-carboxamide]	50 to 250 µM
O=C(NCc1ccccc1)N1CCC(O)(Cn2cnc(Cl)cc2=O)C2(CCCC2)C1 (stereo not shown) [Example 198, N-Benzyl-10-((4-chloro-6-oxopyrimidin-1(6H)-yl)methyl)-10-hydroxy-7-azaspiro[4.5]decane-7-carboxamide]	50 to 250 µM
O=C(NCc1cccnc1)N1CCC(O)(Cn2cnc(-c3ccccc3)cc2=O)C2(CCCC2)C1 (stereo not shown) [Example 199, 10-Hydroxy-10-((6-oxo-4-phenylpyrimidin-1(6H)-yl)methyl)-N-(pyridin-3-ylmethyl)-7-azaspiro[4.5]decane-7-carboxamide]	50 to 250 µM
Cn1nccc1-c1cc(=O)n(CC2(O)CCN(C(=O)NCc3ccccc3)CC23CCCC3)cn1 (stereo not shown) [Example 205, N-Benzyl-10-hydroxy-10-((4-(1-methyl-1H-pyrazol-5-yl)-6-oxopyrimidin-1(6H)-yl)methyl)-7-azaspiro[4.5]decane-7-carboxamide]	0.5 to 5 µM
C[C@@H]1CNCCN1C(=O)N1CCC(O)(Cn2cnc(-c3ccccc3)cc2=O)C2(CCCC2)C1 (stereo partly drawn) [Example 207, 3-((10-Hydroxy-7-((R)-2-methylpiperazine-1-carbonyl)-7-azaspiro[4.5]decan-10-yl)methyl)-6-phenylpyrimidin-4(3H)-one]	50 to 250 µM
O=C(N1CC2CC2C1)N1CCC(O)(Cn2cnc(-c3ccccc3)cc2=O)C2(CCCC2)C1 (stereo not shown) [Example 209, 3-((7-(3-Azabicyclo[3.1.0]hexane-3-carbonyl)-10-hydroxy-7-azaspiro[4.5]decan-10-yl)methyl)-6-phenylpyrimidin-4(3H)-one]	50 to 250 µM
O=C(N1CC[C@@](O)(Cn2cnc(-c3ccccc3)cc2=O)C2(CCCC2)C1)N1CCOC[C@H]1c1ccccc1 [Example 211, 3-(((S)-10-Hydroxy-7-((R)-3-phenylmorpholine-4-carbonyl)-7-azaspiro[4.5]decan-10-yl)methyl)-6-phenylpyrimidin-4(3H)-one]	< 0.5 µM
O=C(N1CC[C@@](O)(Cn2cnc(-c3ccccc3)cc2=O)C2(CCCC2)C1)N1CCC[C@H]1c1ccccc1 [Example 213, 3-(((S)-10-Hydroxy-7-((S)-2-phenylpyrrolidine-1-carbonyl)-7-azaspiro[4.5]decan-10-yl)methyl)-6-phenylpyrimidin-4(3H)-one]	< 0.5 µM

Second part, the compound after the results:

IC50	SMILES
< 0.5 µM	CS(=N)(=O)c1cn(CC2(O)CCN(C(=O)N3CCOC[C@H]3c3ccccc3)CC23CCCC3)c(=O)cc1-c1ccccc1 (stereo partly drawn) [Example 190, 1-((10-Hydroxy-7-((R)-3-phenylmorpholine-4-carbonyl)-7-azaspiro[4.5]decan-10-yl)methyl)-5-(S-methylsulfonimidoyl)-4-phenylpyridin-2(1H)-one]
< 0.5 µM	CS(C)(=O)=Nc1cn(CC2(O)CCN(C(=O)N3CCNC[C@H]3c3ccccc3)CC23CCCC3)c(=O)cc1-c1ccccc1 (stereo partly drawn) [Example 191, 5-((Dimethyl(oxo)-λ^6-sulfaneylidene)amino)-1-((10-hydroxy-7-((R)-2-phenylpiperazine-1-carbonyl)-7-azaspiro[4.5]decan-10-yl)methyl)-4-phenylpyridin-2(1H)-one]
< 0.5 µM	O=C(NCc1ccccc1)N1CCC(O)(Cn2cnc(-c3ccccc3)cc2=O)C2(CCCC2)C1 (stereo not shown) [Example 193, N-Benzyl-10-hydroxy-10-((6-oxo-4-phenylpyrimidin-1(6H)-yl)methyl)-7-azaspiro[4.5]decane-7-carboxamide]
5 to 50 µM	CC1(C)CN(C(=O)NCc2ccccc2)CCC1(O)Cn1cnc(-c2ccccc2F)cc1=O (stereo not shown) [Example 195, N-Benzyl-4-((4-(2-fluorophenyl)-6-oxopyrimidin-1(6H)-yl)methyl)-4-hydroxy-3,3-dimethylpiperidine-1-carboxamide]
5 to 50 µM	O=C(NCc1ccccc1)N1CCC(O)(Cn2cnc(-c3cccnc3)cc2=O)C2(CCCC2)C1 (stereo not shown) [Example 200, N-Benzyl-10-hydroxy-10-((6-oxo-4-(pyridin-3-yl)pyrimidin-1(6H)-yl)methyl)-7-azaspiro[4.5]decane-7-carboxamide]
0.5 to 5 µM	O=C(NCc1ccccc1)N1CCC(O)(Cn2cnc(-c3ccncc3)cc2=O)C2(CCCC2)C1 (stereo not shown) [Example 201, N-Benzyl-10-hydroxy-10-((6-oxo-4-(pyridin-4-yl)pyrimidin-1(6H)-yl)methyl)-7-azaspiro[4.5]decane-7-carboxamide]
5 to 50 µM	O=C(NCc1ccccc1)N1CCC(O)(Cn2cnc(N3CCCC3)cc2=O)C2(CCCC2)C1 (stereo not shown) [Example 202, N-Benzyl-10-hydroxy-10-((6-oxo-4-(pyrrolidin-1-yl)pyrimidin-1(6H)-yl)methyl)-7-azaspiro[4.5]decane-7-carboxamide]
50 to 250 µM	O=C(NCc1ccccc1)N1CCC(O)(Cn2cnc(N3CCOCC3)cc2=O)C2(CCCC2)C1 (stereo not shown) [Example 203, N-Benzyl-10-hydroxy-10-((4-morpholino-6-oxopyrimidin-1(6H)-yl)methyl)-7-azaspiro[4.5]decane-7-carboxamide]
5 to 50 µM	Cn1cc(-c2cc(=O)n(CC3(O)CCN(C(=O)NCc4ccccc4)CC34CCCC4)cn2)cn1 (stereo not shown) [Example 204, N-Benzyl-10-hydroxy-10-((4-(1-methyl-1H-pyrazol-4-yl)-6-oxopyrimidin-1(6H)-yl)methyl)-7-azaspiro[4.5]decane-7-carboxamide]
0.5 to 5 µM	O=C(N1CCC(O)(Cn2cnc(-c3ccccc3)cc2=O)C2(CCCC2)C1)N1CCCC1C(F)(F)F (stereo not shown) [Example 206, 3-((10-Hydroxy-7-(2-(trifluoromethyl)pyrrolidine-1-carbonyl)-7-azaspiro[4.5]decan-10-yl)methyl)-6-phenylpyrimidin-4(3H)-one]
50 to 250 µM	CC(C)C1CNCCN1C(=O)N1CCC(O)(Cn2cnc(-c3ccccc3)cc2=O)C2(CCCC2)C1 (stereo not shown) [Example 208, 3-((10-Hydroxy-7-(2-isopropylpiperazine-1-carbonyl)-7-azaspiro[4.5]decan-10-yl)methyl)-6-phenylpyrimidin-4(3H)-one]
< 0.5 µM	O=C(N1CC[C@@](O)(Cn2cnc(-c3ccccc3)cc2=O)C2(CCCC2)C1)N1CCNC[C@@H]1c1ccccc1 [Example 210, 3-(((S)-10-Hydroxy-7-((S)-2-phenylpiperazine-1-carbonyl)-7-azaspiro[4.5]decan-10-yl)methyl)-6-phenylpyrimidin-4(3H)-one]
50 to 250 µM	O=C(N1CC[C@@](O)(Cn2cnc(-c3ccccc3)cc2=O)C2(CCCC2)C1)N1CCOC[C@@H]1c1ccccc1 [Example 212, 3-(((S)-10-Hydroxy-7-((S)-3-phenylmorpholine-4-carbonyl)-7-azaspiro[4.5]decan-10-yl)methyl)-6-phenylpyrimidin-4(3H)-one]
< 0.5 µM	O=C(NCc1cccs1)N1CC[C@@](O)(Cn2cnc(-c3ccccc3)cc2=O)C2(CCCC2)C1 [Example 214, (S)-10-Hydroxy-10-((6-oxo-4-phenylpyrimidin-1(6H)-yl)methyl)-N-(thiophen-2-ylmethyl)-7-azaspiro[4.5]decane-7-carboxamide]
